The source of these data is patent publication US8759363B2, “Quinazoline-based T cell proliferation inhibitors” (Yissum Research Development Company of the Hebrew …, priority 2010, dated 2014).

Test [1] concerns A375. The experiment in a line: A375 proliferation, BrdU uptake. It is filed as cell-based. To be noted: Homo sapiens, A-375. Here is the method: Cells were depleted of fetal calf serum (FCS) for 12 hours. They were then stimulated to proliferate by addition of ConA (10 μg/ml) for PBMC from healthy individuals and for Jurkat cells, FCS (10%) for HEK293 and A375 cells, PDGF (30 ng/ml) for NIH 3T3 cells, and EGF (30 ng/ml) for MDA-MB-231, Cells (1×10^5) were cultured in 96-well plates for 3 days in the presence or absence of inhibitors at the concentrations specified in the text. Each condition was tested in duplicate wells.
(§1) Proliferation was assessed by BrdU incorporation using a colorimetric ELISA kit (Roche, Germany). Subsequent to labeling with 10 μM BrdU, DNA was denatured and the cells were incubated with anti-BrdU-POD, prior to the addition of colorimetric substrate (TMB). The reaction product was quantified by measuring absorbance at 450 nm in an ELISA plate reader (ELx800 BIO-TEK Instruments Inc.).
To characterize the mode of action of 2 (S101) in more detail, we first examined whether 2 inhibits non-hematopoietic cell lines. We studied the effect of 2 on the growth of four cell lines: NIH 3T3 (mouse embryonic fibroblasts), A-431 (human vulval carcinoma cells), MDA-MB-468 (human breast carcinoma cells), and PANC-1 (human pancreatic carcinoma cells) (FIGS. 1A-B). We also tested the inhibitors on human keratinocytes. […]

Test [2] concerns PBMC depleted of CD3+ cells. Nature of the test: Proliferation of PBMC depleted of CD3+ cells, BrdU. It is filed as cell-based. To be noted: Homo sapiens, stimulated by ODN2006 or LPS, stated as similar to ~0.5 μM, read-out: IC50 for PBMCs depleted of CD3+ cells. Here is the method: Blood samples were taken from healthy donors and loaded on a Ficoll density gradient to purify the PBMC population. T cells were purified by human anti-CD3 using an autoMACS instrument (Miltenyi Biotec, Bergisch-Gladbach, Germany), according to the manufacturer's instructions. The identity of T cells was confirmed by flow cytometry, as they stained positive for CD3. Cells were stimulated with ConA (10 μg/ml), ODN2006 (0.5 μg/ml; Enzo Life Sciences), or LPS (50 μg/ml; Sigma-Aldrich, Steinheim, Germany), for 72 h in the presence of the inhibitor, and their proliferation was measured in the BrdU incorporation assay as will be later described.
as §1
PBMC consist of a mixture of mononucleated cells, mostly T cells. To identify the cell type that was inhibited by 2, we first purified T cells from PBMC with an autoMACS apparatus (Miltenyi Biotec), using anti-CD3 antibodies. We were now able to compare three cell populations: total PBMC, CD3+ cells purified from PBMC, and PBMC that had been depleted of CD3+ cells. […]

Test [3] has as its system IL-2 secretion by 2C splenocytes stimulated by irradiated BALB/c splenocytes. Nature of the test: IL-2 levels in MLR supernatants. It is filed as cell-based, mouse. To be noted: 24, 48 and 72 h MLR; compound 2 up to 1 μM. Here is the method: In the mixed lymphocyte reaction, stimulator cells cause responder cells to proliferate, owing to alloreactivity [Reich-Zeliger et al., 2004]. Splenocytes from 2c mice were stimulated by irradiated splenocytes from BALB/c mice in the presence of the evaluated compound at the concentrations specified. Cultures were incubated for 72 hours in 96-well plates.
Jurkat or PBMC cells were treated for 12 h with 1 μM, 0.5 μM or no inhibitor. Cells (1×10^6) were plated in 24-well plates (Nunc) and stimulated by C305 (dilution 1:500), anti-CD28 (1:100), PMA (50 ng/ml) or ionomycin (1 μM) for 12 h. Alternately, cells were stimulated for 24, 48 and 72 h in MLR. After stimulation cells were centrifuged at 130×g for 5 minutes at room temperature.
Supernatants were collected and IL-2 was assayed using the IL-2 ELISA kit (BioSource International USA, KH0022) according to the manufacturer's instructions. Absorbance was read at 450 nm in an ELISA plate reader (ELx800 BIO-TEK Instruments Inc.).
In vivo, T cells are stimulated by neighboring cells. In order to test the effect of 2 on cell-stimulated IL-2 secretion, the supernatants of splenocytes after 24, 48 and 72 h MLR were collected and analyzed for their IL-2 levels (FIG. 5C). […] At higher concentrations, no viable cells remained.

Test [4] relates to OT2 (resting) cells. Nature of the test: MLR with resting control cells, resting OT2 cells. It is filed as cell-based, mouse. To be noted: 0.5 μM, 72 h MLR with IL-7; no inhibitor 1025. The source says: The aim of this test was to determine whether 2 affects only the proliferating cells or there is a general mechanism affecting all cell numbers. For this purpose we mixed 3 cell types: […]: BALB/c, 2C and OT1; […]: CB6F1, TEA and OT2. The OT1 and OT2 are splenocytes that were isolated from OT1 and OT2 mice (Jackson Laboratories, Bar Harbor, Me.),
Thus, the ability to monitor the fate of proliferation and resting cells by FACS was enabled due to the use of the MLR described above for CD4+ and CD8+ and the addition of OT2 and OT1 splenocytes, respectively.
Proliferating cells often secrete cytokines that induce survival of neighbouring cells; since the proliferation was expected to be inhibited we added 50 ng/ml of IL-7. This concentration is sufficient to keep the cells alive, but not to induce proliferation.
The number of TEA and OT2 cells that were treated with 0.5 μM 2 was 1452 and 826, respectively, while the number of 2C and OT1 cells that were treated with 0.5 μM 21 was 3003 and 903, respectively. This is depicted as a bar-graph in FIG. 9C.

Where two headings read alike, the source gives them in different places.

As usually defined, the IC50 is the midpoint of a concentration-inhibition curve. For the molecule `COc1cc(-c2nc(Nc3ccc(C)cc3)c3ccccc3n2)cc(OC)c1OC` [Compound 2, N-p-tolyl-2-(3,4,5-trimethoxyphenyl)quinazolin-4-amine], the IC50 was roughly 0.8 µM in test [1] (A375, non-stimulated, read-out: IC50 of non-stimulated cells); greater than 10 µM in test [1] (A375, serum (FCS 10%) activated, read-out: IC50 of stimulated cells); roughly 0.5 µM in test [2]. Moreover, the “IL-2 levels in MLR supernatants” value in test [3] was “no visible decrease”. The “number of OT2 (resting) cells” value in test [4] turned out to be 826.
